From article doi:10.1101/2024.08.19.608619, “Discovery of potent SARS-CoV-2 nsp3 macrodomain inhibitors uncovers lack of translation to cellular antiviral response” (bioRxiv, 2024)
Read-outs that look alike come from different tables or passages of the source.

Legend:
SARS-CoV-2 nsp3-mac1 [1] = biological target: T1, SARS-CoV-2 nsp3-mac1 (Severe acute respiratory syndrome coronavirus 2, UniProt P0DTD1); experiment: biochemical; format: biochemical; settings: SARS-CoV-2 nsp3 macrodomain TR-FRET single point
SARS-CoV-2 nsp3-mac1 [2] = biological target: T1, SARS-CoV-2 nsp3-mac1; experiment: biochemical; parameters: SARS-CoV-2 nsp3 macrodomain TR-FRET single point, per cent inhibition, n=2
[3] = read-out: perc_inhibition_mean, batch_name=ASAP-0000416-001
[4] = read-out: perc_inhibition_mean, batch_name=ASAP-0000417-001
[5] = read-out: perc_inhibition_mean, batch_name=ASAP-0000418-001
[6] = read-out: perc_inhibition_mean, batch_name=ASAP-0000419-001
[7] = read-out: perc_inhibition_mean, batch_name=ASAP-0000420-001
[8] = read-out: perc_inhibition_mean, batch_name=ASAP-0000421-001
[9] = read-out: perc_inhibition_mean, batch_name=ASAP-0000422-001
[10] = read-out: perc_inhibition_mean, batch_name=ASAP-0000423-001
[11] = read-out: perc_inhibition_mean, batch_name=ASAP-0000424-001
[12] = read-out: perc_inhibition_mean, batch_name=ASAP-0000425-001
[13] = read-out: perc_inhibition_mean, batch_name=ASAP-0000426-001
[14] = read-out: perc_inhibition_mean, batch_name=ASAP-0000427-001
[15] = read-out: perc_inhibition_mean, batch_name=ASAP-0000428-001
[16] = read-out: perc_inhibition_mean, batch_name=ASAP-0000429-001
[17] = read-out: perc_inhibition_mean, batch_name=ASAP-0000430-001
[18] = read-out: perc_inhibition_mean, batch_name=ASAP-0000448-001
[19] = read-out: perc_inhibition_mean, batch_name=ASAP-0000449-001

SMILES | perc_inhibition_mean (SARS-CoV-2 nsp3-mac1 [1]; concentration 49.75 uM) [%] | perc_inhibition_mean (SARS-CoV-2 nsp3-mac1 [1]; concentration 99.5 uM) [%] | also measured
Cc1ccc(C(=O)N(CCC(=O)N2CCNCC2)Cc2cccc(Cl)c2)[nH]1 [ASAP-0000416] | -5.904 | -3.936 | inhibition at 49.75 µM (SARS-CoV-2 nsp3-mac1 [2]; [3]): -5.9%; inhibition at 99.5 µM (SARS-CoV-2 nsp3-mac1 [2]; [3]): -3.94%
O=C(CCN(Cc1cccc(Cl)c1)C(=O)[C@@H]1C[C@@H](O)CN1)N1CCNCC1 [ASAP-0000417] | -3.538 | 4.743 | inhibition at 49.75 µM (SARS-CoV-2 nsp3-mac1 [2]; [4]): -3.54%; inhibition at 99.5 µM (SARS-CoV-2 nsp3-mac1 [2]; [4]): 4.74%
Cn1ncnc1C(=O)N1CCC(c2ccn3ncc(C(=O)N4CCCCC4)c3c2)CC1 [ASAP-0000418] | 2.38 | 20.346 | inhibition at 49.75 µM (SARS-CoV-2 nsp3-mac1 [2]; [5]): 2.38%; inhibition at 99.5 µM (SARS-CoV-2 nsp3-mac1 [2]; [5]): 20.3%
O=C(c1nc(=O)[nH][nH]1)N1CCC(c2ccn3ncc(C(=O)N4CCCCC4)c3c2)CC1 [ASAP-0000419] | 23.445 | 34.579 | inhibition at 49.75 µM (SARS-CoV-2 nsp3-mac1 [2]; [6]): 23.4%; inhibition at 99.5 µM (SARS-CoV-2 nsp3-mac1 [2]; [6]): 34.6%
O=C(c1cc(O)ncn1)N1CCC(c2ccn3ncc(C(=O)N4CCCCC4)c3c2)CC1 [ASAP-0000420] | 19.125 | 30.869 | inhibition at 49.75 µM (SARS-CoV-2 nsp3-mac1 [2]; [7]): 19.1%; inhibition at 99.5 µM (SARS-CoV-2 nsp3-mac1 [2]; [7]): 30.9%
O=C(c1c[nH]nn1)N1CCC(c2ccn3ncc(C(=O)N4CCCCC4)c3c2)CC1 [ASAP-0000421] | 14.65 | 25.652 | inhibition at 49.75 µM (SARS-CoV-2 nsp3-mac1 [2]; [8]): 14.7%; inhibition at 99.5 µM (SARS-CoV-2 nsp3-mac1 [2]; [8]): 25.7%
O=C(c1ccc(O)nc1)N1CCC(c2ccn3ncc(C(=O)N4CCCCC4)c3c2)CC1 [ASAP-0000422] | 10.998 | 26.485 | inhibition at 49.75 µM (SARS-CoV-2 nsp3-mac1 [2]; [9]): 11%; inhibition at 99.5 µM (SARS-CoV-2 nsp3-mac1 [2]; [9]): 26.5%
Cc1c[nH]nc1C(=O)N1CCC(c2ccn3ncc(C(=O)N4CCCCC4)c3c2)CC1 [ASAP-0000423] | 8.474 | 27.38 | inhibition at 49.75 µM (SARS-CoV-2 nsp3-mac1 [2]; [10]): 8.47%; inhibition at 99.5 µM (SARS-CoV-2 nsp3-mac1 [2]; [10]): 27.4%
CN(C(=O)c1cnn2ccc(C3CCN(C(=O)c4ccccc4)CC3)cc12)c1ccccc1O [ASAP-0000424] | 10.02 | 15.878 | inhibition at 49.75 µM (SARS-CoV-2 nsp3-mac1 [2]; [11]): 10%; inhibition at 99.5 µM (SARS-CoV-2 nsp3-mac1 [2]; [11]): 15.9%
COC[C@@H](Nc1ncnc2nc[nH]c12)c1ccc(C)o1 [ASAP-0000425] | -4.638 | 3.942 | inhibition at 49.75 µM (SARS-CoV-2 nsp3-mac1 [2]; [12]): -4.64%; inhibition at 99.5 µM (SARS-CoV-2 nsp3-mac1 [2]; [12]): 3.94%
CC(C)c1nc([C@@H](C)Nc2ncnc3nc[nH]c23)cs1 [ASAP-0000426] | 2.645 | 3.067 | inhibition at 49.75 µM (SARS-CoV-2 nsp3-mac1 [2]; [13]): 2.65%; inhibition at 99.5 µM (SARS-CoV-2 nsp3-mac1 [2]; [13]): 3.07%
CN(c1ncnc2[nH]ncc12)[C@@H](CCO)c1ccccc1 [ASAP-0000427] | 8.856 | 5.14 | inhibition at 49.75 µM (SARS-CoV-2 nsp3-mac1 [2]; [14]): 8.86%; inhibition at 99.5 µM (SARS-CoV-2 nsp3-mac1 [2]; [14]): 5.14%
CC(C)[C@H]1CNC(=O)CN1c1ncnc2[nH]ccc12 [ASAP-0000428] | 6.836 | 17.564 | inhibition at 49.75 µM (SARS-CoV-2 nsp3-mac1 [2]; [15]): 6.84%; inhibition at 99.5 µM (SARS-CoV-2 nsp3-mac1 [2]; [15]): 17.6%
Cc1nc(NC(=O)Cn2cnc3ccccc3c2=O)c2cc[nH]c2n1 [ASAP-0000429] | -4.067 | -4.886 | inhibition at 49.75 µM (SARS-CoV-2 nsp3-mac1 [2]; [16]): -4.07%; inhibition at 99.5 µM (SARS-CoV-2 nsp3-mac1 [2]; [16]): -4.89%
O=C(c1nnn[nH]1)N1CCC(c2ccn3ncc(C(=O)N4CCCCC4)c3c2)CC1 [ASAP-0000430] | 55.152 | 69.012 | inhibition at 49.75 µM (SARS-CoV-2 nsp3-mac1 [2]; [17]): 55.2%; inhibition at 99.5 µM (SARS-CoV-2 nsp3-mac1 [2]; [17]): 69%
Cn1cc([C@H]2CSCCN2c2ncnc3[nH]ccc23)cn1 [ASAP-0000448] | -6.49 | -3.463 | inhibition at 49.75 µM (SARS-CoV-2 nsp3-mac1 [2]; [18]): -6.49%; inhibition at 99.5 µM (SARS-CoV-2 nsp3-mac1 [2]; [18]): -3.46%
Cn1nc(C(=O)N2CCC(c3ccn4ncc(C(=O)N5CCCCC5)c4c3)CC2)cc1C(=O)O [ASAP-0000449] | 42.655 | 59.743 | inhibition at 49.75 µM (SARS-CoV-2 nsp3-mac1 [2]; [19]): 42.7%; inhibition at 99.5 µM (SARS-CoV-2 nsp3-mac1 [2]; [19]): 59.7%
